Measurements published in patent US20230226092A1, “CANCER […] ON G[…]” (NuCana plc, priority 2015, published 2023).

System: advance progressive cancers that are refractory to, or have relapsed on, all conventional therapies
Assay: ProGem1 dose escalation clinical study: clinical response (RECIST 1.1, tumour markers)
Format: in vivo, human
Design: CA125 level / CA19.9 / CEA / CA125 / Tumour volume / CA 15.3 tumour marker / inhibin B: unit not given here
Conditions: for CA 15.3 tumour marker: 726 at base; for inhibin B: 1,038 prior to study entry
Description: The following data were generated in clinical studies of NUC-1031 in human patients with advance progressive cancers that are refractory to, or have relapsed on, all conventional therapies that have been used to date. The results clearly illustrate the ability of NUC-1031 to successfully treat refractory cancers.
Although the primary objectives of the dose escalation part of the study were to determine the Recommended Phase II Dose (RP2D) and safety profile, secondary objectives included determining the PK profile, however effective treatment of patients with a range of refractory cancers has also been observed as part of this study.
A total of 68 patients have been entered into this dose escalation study, of which 49 were evaluable for clinical response in that they have received at least 2 Cycles of NUC-1031 and were therefore eligible for a RECIST 1.1 assessment.
NUC-1031 was administered as a 5 to 30 minute intravenous slow bolus injection. • Schedule A: NUC-1031 was administered on days 1, 8, 15 of a 4 weekly Cycle. • Schedule B: NUC-1031 was administered on days 1, 5, 8, 12, 15, 19, of a 4 weekly Cycle.
Evaluable patients were patients that received ≥ 2 Cycles of NUC-1031 and were therefore eligible for a RECIST 1.1 assessment at the end of Cycle 2. Where the disease response duration, measured in months, is followed by a “+” this indicates ongoing disease control as of the latest cut-off date.

[1] = evaluable patients n = 49, RECIST 1.1

With “gemcitabine-[phenyl-benzoxy-L-alaninyl)]-phosphate [NUC-1031]” the “Reduction in tumour volume” value (Patient 037, pancreatic cancer, CT scan on 29th April 2014) was 30%, the “Reduction in tumour volume” value (Patient 037, pancreatic cancer, end of Cycle 2 CT scan) was 18.4% and the CEA (Patient 037, pancreatic cancer, from 536 at baseline) was 42. For the same substance, the CA19.9 (Patient 037, pancreatic cancer, from 15,000 at baseline) was 4,000, the “Response to RECIST” value (Patient 038, ovarian cancer, 900 mg/m^2 weekly) was “Progressive Disease” and the “Increase in tumour volume” value (Patient 038, ovarian cancer, end of Cycle 2 scan) was 25%. For the same substance, the Disease response duration (Patient 040, cholangiocarcinoma) was 4 months, the “CA19.9” value (Patient 040, cholangiocarcinoma, 4th June, from 664 at baseline) was 155 and the “Response to RECIST” value (Patient 040, cholangiocarcinoma, 1,000, then 900 mg/m^2 weekly) was “Stable Disease”. The Tumour volume (Patient 040, cholangiocarcinoma, end of Cycle 2 CT scan, from 85 at base) was 82.1, the Disease response duration (Patient 041, breast cancer) was 4 months and the Symptomatic benefit (Patient 041, breast cancer) was “managed to reduce opioids significantly”. The “CA 15.3 tumour marker” value (Patient 041, breast cancer, 19th May 2014) was 824, the “Response to RECIST” value (Patient 041, breast cancer, 900, then 825 mg/m^2 weekly) was “Stable Disease” and the “CA 15.3 tumour marker” value (Patient 041, breast cancer, at C2) was 845. For the same substance, the “Response to RECIST” value (Patient 042, cholangiocarcinoma, 900 mg/m^2 weekly) was “Progressive Disease”, the “Reduction in tumour volume of primary target lesion” value (Patient 042, cholangiocarcinoma, end of Cycle 2 CT scan) was 9% and the Disease response duration (Patient 043, ovarian cancer) was 13 months. For the same substance, the PET scan finding (Patient 043, ovarian cancer, 7th April 2014) was “stable disease and SUV had gone down in some target tumours”, the CA125 (Patient 043, ovarian cancer, 15th July, from 1,099 at baseline) was 910 and the “Response to RECIST” value (Patient 043, ovarian cancer, 900, then 750 mg/m^2 weekly) was “Stable Disease”. For the same substance, the CA125 (Patient 043, ovarian cancer, beginning of Cycle 2, from 1.099 at baseline) was 783, the “Reduction in tumour volume from baseline” value (Patient 043, ovarian cancer, end of Cycle 6 CT scan) was 10% and the “Volume of fluid drained from pleural effusion” value (Patient 043, ovarian cancer, was 300ml per week) was 150 ml per week. For the same substance, the Disease response duration (Patient 044, lung cancer) was 5 months, the “Response to RECIST” value (Patient 044, lung cancer (adenocarcinoma), 900, then 825 mg/m^2 weekly) was “Stable Disease” and the “Reduction in tumour volume” value (Patient 044, lung cancer, end of Cycle 2 CT scan) was 10%. For the same substance, the Disease response duration (Patient 046, adrenal carcinoma) was 11 months, the “Response to RECIST” value (Patient 046, adrenal carcinoma, 1,000, then 900, 750, 625 mg/m^2 weekly) was “Stable Disease” and the “Reduction in tumour volume from baseline” value (Patient 046, adrenal carcinoma, end of Cycle 6 CT scan) was 12.6%. For the same substance, the Disease response duration (Patient 048, ovarian cancer) was 8 months, the “Response to RECIST” value (Patient 048, ovarian cancer (granulosa cell tumour), 1,000, then 900, 825, 750, 625 mg/m^2 weekly) was “Stable Disease” and the “inhibin B” value (Patient 048, ovarian cancer, August) was 1148. For the same substance, the “inhibin B” value (Patient 048, ovarian cancer, July 2014) was 1,106, the “inhibin B” value (Patient 048, ovarian cancer, September) was 1053 and the PET scan finding (Patient 048, ovarian cancer, end of Cycle 1) was “stable disease and reduction in SUV at target sites”. The Symptomatic benefit (Patient 050 (202), oesophageal cancer) was “improvement in their dysphagia”, the “Response to RECIST” value (Patient 050 (202), oesophageal cancer, 900 mg/m^2 weekly) was “Progressive Disease” and the “Response to RECIST” value (Patient 051 (203), anal cancer, 900 mg/m^2 weekly) was “Progressive Disease”. For the same substance, the Disease response duration (Patient 052 (204), oesophageal cancer) was 5 months, the “Response to RECIST” value (Patient 052 (204), oesophageal cancer, 900, then 825 mg/m^2 weekly) was “Stable Disease” and the “Response to RECIST” value (Patient 053 (205), colon cancer, 900 mg/m^2 weekly) was “Progressive Disease”. The “Response to RECIST” value (Patient 055 (207), ovarian cancer, 900, then 825, 625 mg/m^2 weekly) was “Stable Disease”, the “CA125” value (Patient 055 (207), ovarian cancer, January 2015, 36 at baseline) was 24 and the “Reduction in tumour volume from baseline” value (Patient 055 (207), ovarian cancer, end of Cycle 6 CT scan) was 18%. The Disease response duration (Patient 055 (207), ovarian cancer, ongoing) was no less than 10 months, the Disease response duration (Patient 057 (209), ovarian cancer) was 5 months and the “Response to RECIST” value (Patient 057 (209), ovarian cancer, 900, then 825, 750 mg/m^2 weekly) was “Stable Disease”. The “Reduction in tumour volume from baseline” value (Patient 057 (209), ovarian cancer, end of Cycle 4 CT scan) was 10%, the Disease response duration (Patient 058 (210), lung cancer) was 4 months and the “Response to RECIST” value (Patient 058 (210), lung cancer, 825, then 750 mg/m^2 weekly) was “Stable Disease”. For the same substance, the Disease response duration (Patient 059 (211), cervical cancer) was 7 months, the “Response to RECIST” value (Patient 059 (211), cervical cancer, 825, then 750, 625 mg/m^2 weekly) was “Stable Disease” and the “Response to RECIST” value (Patient 060 (212), pancreatic cancer, 825 mg/m^2 weekly) was “Progressive Disease”. The Disease response duration (Patient 061 (213), colorectal cancer) was 3 months, the “Response to RECIST” value (Patient 061 (213), colorectal cancer, 825 mg/m^2 weekly) was “Stable Disease” and the “Reduction in tumour volume” value (Patient 061 (213), colorectal cancer, end of Cycle 2 CT scan) was 2%. For the same substance, the Disease response duration (Patient 063 (215), ovarian cancer) was 3 months, the “Response to RECIST” value (Patient 063 (215), ovarian cancer, 825, then 750, 625 mg/m^2 weekly) was “Stable Disease” and the “Response to RECIST” value (Patient 064 (216), trophoblastic cancer, 825 mg/m^2 weekly) was “Progressive Disease”. For the same substance, the “Response to RECIST” value (Patient 066 (218), colorectal cancer, 825, then 750, 625 mg/m^2 weekly) was “Stable Disease”, the “Reduction in tumour volume from baseline” value (Patient 066 (218), colorectal cancer, CT scan on 30th December) was 16% and the Disease response duration (Patient 066 (218), colorectal cancer, ongoing) was no less than 8 months. The “Increase from baseline (EOS CT scan)” value (Patient 067 (219), osteosarcoma) was 1%, the “Response to RECIST” value (Patient 067 (219), osteosarcoma, 825, then 750 mg/m^2 weekly) was “Stable Disease” and the Disease response duration (Patient 067 (219), osteosarcoma, ongoing) was no less than 7 months. The “Response to RECIST” value (Patient 068 (220), lung cancer, 825 mg/m^2 weekly) was “Progressive Disease”, the “Response to RECIST” value (Patient 069 (221), colorectal cancer, 825, then 750, 675, 625, 500 mg/m^2 weekly) was “Stable Disease” and the PET scan finding (Patient 069 (221), colorectal cancer, PET scan on 30/10) was “Partial Response”. For the same substance, the “Reduction in tumour volume from baseline” value (Patient 069 (221), colorectal cancer, end of C2 CT scan) was 11%, the “Reduction in tumour volume from baseline” value (Patient 069 (221), colorectal cancer, end of C4 CT scan) was 26% and the Disease response duration (Patient 069 (221), colorectal cancer, ongoing) was no less than 7 months. For the same substance, the “Clinical examination of metastases” value (Patient 069 (221), colorectal cancer, pre C2 examination) was “cutaneous and sub cutaneous metastases were greatly reduced or almost vanished”, the “Best Overall Response: Partial Responses, patients (%)” value [1] was 5 (10%) and the “Best Overall Response: Progressive Disease, patients (%)” value [1] was 11 (22%). The “Best Overall Response: Stable Disease, patients (%)” value [1] was 33 (67%).
